Entries after “also recorded” stand apart in the source; their conditions may differ.
What was measured:
SYO1 cells [1] = assay: Cell cycle analysis (Click-iT Plus EdU Flow Cytometry Assay); format: cell-based, human; settings: 200 nM or 1 μM for 8 or 13 days; compared to DMSO and lenalidomide
Protocol: (§1) Procedure: SYO1 cells were treated for 8 or 13 days with DMSO, a BRD9 degrader (Compound 1) at 200 nM or 1 μM, or an E3 ligase binder (lenalidomide) at 200 nM. Compounds were refreshed every 5 days. Cell cycle analysis was performed using the Click-iTT Plus EdU Flow Cytometry Assay (Invitrogen). The apoptosis assay was performed using the Annexin V-FITC Apoptosis Detection Kit (Sigma A9210). Assays were performed according to the manufacturer's protocol.

[2] = tested on: synovial sarcoma cell lines (SYO1, HS-SY-II, and ASKA); assay: Crystal violet growth assay, synovial sarcoma cell lines, day 14; format: cell-based, human; settings: treated daily
Protocol: (§2) Procedure: Cells were seeded into 6-well or 12-well plates and were treated daily with a BRD9 degrader (Compound 1), a bromo-domain BRD9 binder (Compound 2), E3 ligase binder (lenalidomide), DMSO, or staurosporin (positive control for cell killing), at indicated concentrations. The number of cells was optimized for each cell line. Growth media was refreshed every 5 days. By day 14, medium was removed, cells were washed with PBS, and stained using 500 μL of 0.005% (w/v) crystal violet solution in 25% (v/v) methanol for at least 1 hour at room temperature. Subsequently plates were scanned on an Odyssey CLx Imaging system.

[3] = tested on: non-synovial control cancer cell lines (293T, A549, G401); assay: Growth of non-synovial control cancer cell lines; format: cell-based
Protocol: (§3) Cells were treated with DMSO or the BRD9 degrader, Compound 1, at indicated concentrations, and proliferation was monitored from day 7 to day 14 by measuring confluency over time using an IncuCyte live cell analysis system (FIG. 4). Growth medium and compounds were refreshed every 3-4 days.
(§4) Cells were seeded into 12-well plates and treated with DMSO, 1 μM BRD9 inhibitor, Compound 2 (also known as BI-7273, see Martin et al, J Med Chem. 59 (10): 4462-4475 (2016); see structure of compound 2 below), or 1 μM BRD9 degrader, Compound 1.
(§5) The number of cells was optimized for each cell line. Growth medium and compounds were refreshed every 3-5 days. SYO1, Yamato, A549, 293T and HS-SY-II cells were fixed and stained at day 11. ASKA cells were fixed and stained at day 23. Staining was done by incubation with crystal violet solution (0.5 g Crystal Violet, 27 ml 37% Formaldehyde, 100 mL 10×PBS, 10 mL Methanol, 863 dH20 to 1 L) for 30 min followed by 3× washes with water and drying the plates for at least 24 h at room temperature. Subsequently plates were scanned on an Odyssey CLx Imaging system (FIG. 5).
(§6) Cells were seeded into 96-well ultra-low cluster plate (Costar, #7007) in 200 μL complete media and treated at day 2 with DMSO, Staurosporin, or BRD9 degrader, Compound 1, at indicated doses (FIG. 2C). Media and compounds were changed every 5 d and cell colonies were imaged at day 14.

[4] = tested on: synovial sarcoma cell lines (SYO1, Yamato, HS-SY-II, and ASKA); assay: Growth of synovial sarcoma cell lines (IncuCyte confluency, crystal violet, colonies); format: cell-based, human; settings: 1 μM or indicated concentrations
Protocol: as §3, §4, §5, §6

[5] = tested on: non-synovial control cancer cell lines (RD, HCT116, and Calu6); assay: Crystal violet growth assay, non-synovial control cancer cell lines, day 14; format: cell-based; settings: treated daily
Protocol: as §2

SYO1 cells [6] = assay: Apoptosis assay (Annexin V-FITC Apoptosis Detection Kit); format: cell-based, human; settings: 8 days; compared to DMSO controls
Protocol: as §1

[7] = tested on: ASKA synovial sarcoma xenografts; assay: ASKA synovial sarcoma xenograft efficacy; format: in vivo; settings: for Tumor Growth (%) on Day 21 / Tumor Size (mm^3) on Day 21: Mean ± SEM; for T/C (%) / TGI (%): Day 21
Protocol: A study was conducted to examine anti-tumor efficacy of compound S-D1 with BIW IV dosing of the racemate, compound D1, for 3 weeks utilizing a second xenograft model of human synovial sarcoma, ASKA. Vehicle (0.5% HPMC, 0.1% Tween 80 in water, pH 1.3 to 1.5), administered orally, was used as the general comparator for all test article responses (i.e., tumor growth and body weight changes). Pazopanib and ifosfamide, two agents currently used in clinic to treat synovial sarcoma patients were compared to compound D1 treatment alone. Pazopanib was administered orally at 40 mg/kg QD and ifosfamide was given IV at 80 mg/kg QD for the first 3 days (Days 0, 1, and 2) in the 3-week treatment period, mimicking the equivalent treatment regimens for both drugs in human patients.

[8] = 80 mg/kg QD IV Day 0 to Day 2, ASKA xenograft
[9] = 40 mg/kg QD oral 3 weeks, ASKA xenograft

COc1cc(-c2cn(C)c(=O)c3cnccc23)cc(OC)c1CN(C)CC(=O)NCCOCCOCCNc1cccc2c1C(=O)N(C1CCC(=O)NC1=O)C2=O (centres unmarked) [Compound 1]
numbers of cells in the S-phase of the cell cycle (SYO1 cells [1]): reduced numbers of cells in the S-phase
inhibition of the growth of the cells [2]: inhibition of the growth of the cells; also recorded: most significant growth inhibition
inhibition of the growth of the cells [3]: does not result in inhibition of the growth
inhibition of the growth of the cells [4]: inhibition of the growth of the cells
inhibition of the growth of the cells [5]: did not result in inhibition of the growth
numbers of early- and late-apoptotic cells (SYO1 cells [6]): increased numbers of early- and late-apoptotic cells

COc1cc(-c2cn(C)c(=O)c3cnccc23)cc(OC)c1CN(C)C [Compound 2]
inhibition of the growth of the cells [2]: inhibition of the growth of the cells
inhibition of the growth of the cells [3]: does not result in inhibition of the growth
inhibition of the growth of the cells [4]: inhibition of the growth of the cells
inhibition of the growth of the cells [5]: did not result in inhibition of the growth

O=P1(NCCCl)OCCCN1CCCl (centres unmarked) [Ifosfamide, reference compound]
Tumor Growth (%) on Day 21 [7, 8]: 820 ± 56%
Tumor Size (mm^3) on Day 21 [7, 8]: 1164 ± 126 mm^3
T/C (%) ([7]; 80 mg/kg QD IV Day 0 to Day 2): 67.2%
TGI (%) ([7]; 80 mg/kg QD IV Day 0 to Day 2): 32.8%
tolerability (body weight) ([7]; ASKA xenograft, 3-week treatment period): transient body weight loss occurred but recovered within a few days
tumor growth inhibition achieved ([7]; pazopanib 40 mg/kg QD oral, ifosfamide 80 mg/kg QD IV Days 0, 1, 2, ASKA xenograft): partial TGI

Cc1ccc(Nc2nccc(N(C)c3ccc4c(C)n(C)nc4c3)n2)cc1S(N)(=O)=O [Pazopanib, reference compound]
Tumor Growth (%) on Day 21 [7, 9]: 480 ± 33%
Tumor Size (mm^3) on Day 21 [7, 9]: 537 ± 56 mm^3
T/C (%) ([7]; 40 mg/kg QD oral 3 weeks): 39.4%
TGI (%) ([7]; 40 mg/kg QD oral 3 weeks): 60.6%

Source: patent US20240325370A1, “THERAPEUTIC REGIMENS OF A DEGRADER OF BRD9” (FOGHORN THERAPEUTICS INC., priority 2021, published 2024)
